Three molecules from ChEMBL document CHEMBL1201862, “PubChem BioAssay data set” (2004) can be followed below.

Calls of active or inactive are those of the source. A value given as a limit tells only on which side of the number the result lay.

The target of assay [1] is T1, Histone-lysine N-methyltransferase NSD2 (Homo sapiens, UniProt O96028).
T1 sequence (O96028 whole entry): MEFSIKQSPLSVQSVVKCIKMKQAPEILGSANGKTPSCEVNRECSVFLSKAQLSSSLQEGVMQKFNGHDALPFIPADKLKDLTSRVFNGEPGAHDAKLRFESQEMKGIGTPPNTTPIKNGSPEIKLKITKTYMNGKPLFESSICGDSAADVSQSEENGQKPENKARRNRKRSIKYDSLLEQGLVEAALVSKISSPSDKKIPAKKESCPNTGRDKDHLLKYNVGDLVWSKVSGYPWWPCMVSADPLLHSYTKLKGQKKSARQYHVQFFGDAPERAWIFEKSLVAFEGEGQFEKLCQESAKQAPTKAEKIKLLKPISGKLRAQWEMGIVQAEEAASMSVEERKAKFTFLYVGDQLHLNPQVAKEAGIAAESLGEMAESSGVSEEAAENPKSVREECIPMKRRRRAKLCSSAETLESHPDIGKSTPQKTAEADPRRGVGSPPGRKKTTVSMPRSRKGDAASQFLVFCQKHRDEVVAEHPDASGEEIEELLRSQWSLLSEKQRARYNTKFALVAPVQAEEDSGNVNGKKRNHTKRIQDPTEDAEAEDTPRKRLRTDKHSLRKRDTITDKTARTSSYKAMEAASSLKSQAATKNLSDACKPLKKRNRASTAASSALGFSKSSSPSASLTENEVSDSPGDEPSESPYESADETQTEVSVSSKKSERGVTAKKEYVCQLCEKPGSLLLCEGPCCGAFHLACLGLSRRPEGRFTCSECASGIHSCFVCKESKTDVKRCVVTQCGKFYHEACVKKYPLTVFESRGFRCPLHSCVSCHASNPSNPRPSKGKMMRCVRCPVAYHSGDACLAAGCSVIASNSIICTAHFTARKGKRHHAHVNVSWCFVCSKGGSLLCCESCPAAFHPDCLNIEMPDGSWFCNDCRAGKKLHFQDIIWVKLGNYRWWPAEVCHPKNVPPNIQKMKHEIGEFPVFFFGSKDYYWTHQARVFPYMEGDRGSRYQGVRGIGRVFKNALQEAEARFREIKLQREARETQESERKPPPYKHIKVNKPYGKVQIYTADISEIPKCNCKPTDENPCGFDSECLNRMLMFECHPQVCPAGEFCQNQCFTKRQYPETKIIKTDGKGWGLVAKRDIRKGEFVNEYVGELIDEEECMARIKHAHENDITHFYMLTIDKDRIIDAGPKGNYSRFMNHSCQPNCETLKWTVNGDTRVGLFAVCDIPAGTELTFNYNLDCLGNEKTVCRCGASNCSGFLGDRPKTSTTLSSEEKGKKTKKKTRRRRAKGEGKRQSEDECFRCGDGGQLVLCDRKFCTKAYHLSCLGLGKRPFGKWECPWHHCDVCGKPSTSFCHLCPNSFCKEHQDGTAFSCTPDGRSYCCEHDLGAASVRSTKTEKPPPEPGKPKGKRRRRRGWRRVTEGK
Format: biochemical.

Assay [2] deals with T2, Sentrin-specific protease 8 (Homo sapiens, UniProt Q96LD8).
T2 sequence (Q96LD8 whole entry): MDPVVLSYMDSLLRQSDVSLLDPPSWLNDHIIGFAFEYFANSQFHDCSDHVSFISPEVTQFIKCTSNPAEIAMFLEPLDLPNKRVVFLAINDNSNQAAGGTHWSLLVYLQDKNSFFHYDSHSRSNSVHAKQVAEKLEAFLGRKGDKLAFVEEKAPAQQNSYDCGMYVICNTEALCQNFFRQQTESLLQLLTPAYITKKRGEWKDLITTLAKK
Format: functional.

Assay [3] in a line: growth suppression of beta-catenin-knockout colon cells, dose response, cell-based, HCT116, human colon tumor (AID 1045).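 Note: HCT116 colon tumor cells with beta catenin knocked out; cells exposed to compound for 60 hours.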 Format: functional.
Assay [4] deals with Death-associated protein kinase 3 (Homo sapiens, UniProt O43293). Format: functional.
The target of assay [5] is Serine/threonine-protein kinase MRCK alpha (Homo sapiens, UniProt Q5VT25). Format: functional.
Assay [6] concerns the target High affinity nerve growth factor receptor (Homo sapiens, UniProt P04629). Format: functional.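 Note: NTRK1 tested as one member of a kinome-wide profiling panel.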
The target of assay [7] is Proto-oncogene tyrosine-protein kinase Src (Homo sapiens, UniProt P12931). Format: functional.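 Note: SRC entry within a kinome-wide kinase profiling panel.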
For a further assay, the target named is Aurora kinase A (Homo sapiens, UniProt O14965). Format: functional.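 Note: value from the Navigating the Kinome kinase panel profiling, panel entry STK6.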
Assay [8] has as its target Vascular endothelial growth factor receptor 2 (Homo sapiens, UniProt P35968). Format: functional.
Assay [9] has as its target Tyrosine-protein kinase JAK3 (Homo sapiens, UniProt P52333). Format: functional.
The target of assay [10] is Receptor-type tyrosine-protein kinase FLT3 (Homo sapiens, UniProt P36888). Format: functional.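 Note: FLT3 was tested as one member of a kinome-wide kinase panel.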
The next assay concerns the target Ephrin type-A receptor 2 (Homo sapiens, UniProt P29317). Format: functional.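 Note: EPHA2 tested as one member of a kinome-wide kinase panel.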
The target of assay [11] is Serine/threonine-protein kinase PLK3 (Homo sapiens, UniProt Q9H4B4). Format: functional.
The target in assay [12] is Inhibitor of nuclear factor kappa-B kinase subunit beta (Homo sapiens, UniProt O14920). Format: functional.
The target of assay [13] is Fibroblast growth factor receptor 3 (Homo sapiens, UniProt P22607). Format: functional.
In assay [14] the target is T3, Ubiquitin-conjugating enzyme E2 N (Homo sapiens, UniProt P61088).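 Note: Dose-response confirmation in a TR-FRET assay detecting UBC13-driven polyubiquitin chain formation, inhibition measured.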
T3 sequence (P61088 whole entry): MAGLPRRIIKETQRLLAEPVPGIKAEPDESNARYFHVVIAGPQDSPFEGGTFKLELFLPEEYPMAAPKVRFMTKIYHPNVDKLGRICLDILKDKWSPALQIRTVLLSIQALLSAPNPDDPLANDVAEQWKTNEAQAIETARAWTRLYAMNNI
Format: functional.

The nature of assay [15]: inhibition of K1F phage lysis, E. coli UTI89, bacterial capsule biogenesis inhibitors, alamar blue (AID 488966). Format: functional. A general note: Alamar Blue is a resazurin reagent that responds to reducing activity.
The test system of assay [16] is BJ. The experiment in a line: cytotoxicity toward BJ-TERT-LT-ST fibroblasts, dose response, cell-based, RAS-independent, luminescence (AID 1935).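 Note: BJ fibroblasts immortalized with TERT plus LT and ST oncogenes.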 Format: functional. Particulars: Homo sapiens.
For the next assay, the target named is T4, Bcl-2-related protein A1 (Mus musculus, UniProt Q07440).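 Note: confirmatory dose–response counterscreen on Bfl-1, used to check hits from a UBC13 polyubiquitin inhibitor campaign.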
T4 sequence (Q07440 whole entry): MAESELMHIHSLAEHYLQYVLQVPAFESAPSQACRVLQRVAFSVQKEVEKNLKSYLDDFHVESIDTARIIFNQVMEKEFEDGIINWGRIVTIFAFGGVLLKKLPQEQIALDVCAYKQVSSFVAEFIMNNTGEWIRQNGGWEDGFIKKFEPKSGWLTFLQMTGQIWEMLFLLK
Format: functional.

Assay [17] relates to BJ. The experiment in a line: cells. Format: functional, cell-based. Particulars: Homo sapiens.
Assay [18] addresses Small ubiquitin-related modifier 1 (Homo sapiens, UniProt P63165). Put plainly: inhibitors of SUMO1 peptide binding, dose response, biochemical, fluorescence polarization, uHTS hits (AID 624382). Format: functional. Particulars: read-out: IC50_Mean. (In general: Fluorescence polarisation rises when a labelled molecule tumbles more slowly, as on binding a larger partner.)

Sequence of Tyrosine-protein kinase JAK3 (P52333 whole entry): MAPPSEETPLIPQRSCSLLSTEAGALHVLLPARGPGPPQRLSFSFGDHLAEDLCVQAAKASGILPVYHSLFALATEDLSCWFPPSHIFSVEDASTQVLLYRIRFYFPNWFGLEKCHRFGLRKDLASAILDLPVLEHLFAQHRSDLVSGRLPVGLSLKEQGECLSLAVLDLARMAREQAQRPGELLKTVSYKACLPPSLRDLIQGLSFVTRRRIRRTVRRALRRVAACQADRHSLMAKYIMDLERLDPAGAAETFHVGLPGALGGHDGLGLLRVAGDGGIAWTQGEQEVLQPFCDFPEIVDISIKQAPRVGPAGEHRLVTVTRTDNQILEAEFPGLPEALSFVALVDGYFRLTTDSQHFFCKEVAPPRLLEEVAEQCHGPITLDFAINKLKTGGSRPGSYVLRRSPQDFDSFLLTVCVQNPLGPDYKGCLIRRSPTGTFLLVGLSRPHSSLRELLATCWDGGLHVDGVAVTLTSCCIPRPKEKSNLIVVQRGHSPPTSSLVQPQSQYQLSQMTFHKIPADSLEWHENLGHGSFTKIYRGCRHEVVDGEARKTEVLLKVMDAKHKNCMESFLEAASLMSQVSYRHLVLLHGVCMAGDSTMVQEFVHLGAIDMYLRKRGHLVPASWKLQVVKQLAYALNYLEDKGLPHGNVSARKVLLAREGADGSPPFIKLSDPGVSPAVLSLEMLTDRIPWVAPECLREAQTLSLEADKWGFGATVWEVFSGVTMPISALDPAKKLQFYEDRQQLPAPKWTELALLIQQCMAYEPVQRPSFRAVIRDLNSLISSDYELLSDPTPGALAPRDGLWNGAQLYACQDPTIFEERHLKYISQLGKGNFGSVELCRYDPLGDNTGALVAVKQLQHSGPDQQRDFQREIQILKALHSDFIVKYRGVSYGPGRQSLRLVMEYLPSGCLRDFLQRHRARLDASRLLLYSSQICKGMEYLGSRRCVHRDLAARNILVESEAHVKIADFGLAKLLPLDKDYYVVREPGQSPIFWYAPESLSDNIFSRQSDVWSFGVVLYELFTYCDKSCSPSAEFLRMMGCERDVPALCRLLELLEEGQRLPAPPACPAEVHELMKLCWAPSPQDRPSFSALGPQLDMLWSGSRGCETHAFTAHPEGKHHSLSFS
Sequence of Serine/threonine-protein kinase PLK3 (Q9H4B4 whole entry): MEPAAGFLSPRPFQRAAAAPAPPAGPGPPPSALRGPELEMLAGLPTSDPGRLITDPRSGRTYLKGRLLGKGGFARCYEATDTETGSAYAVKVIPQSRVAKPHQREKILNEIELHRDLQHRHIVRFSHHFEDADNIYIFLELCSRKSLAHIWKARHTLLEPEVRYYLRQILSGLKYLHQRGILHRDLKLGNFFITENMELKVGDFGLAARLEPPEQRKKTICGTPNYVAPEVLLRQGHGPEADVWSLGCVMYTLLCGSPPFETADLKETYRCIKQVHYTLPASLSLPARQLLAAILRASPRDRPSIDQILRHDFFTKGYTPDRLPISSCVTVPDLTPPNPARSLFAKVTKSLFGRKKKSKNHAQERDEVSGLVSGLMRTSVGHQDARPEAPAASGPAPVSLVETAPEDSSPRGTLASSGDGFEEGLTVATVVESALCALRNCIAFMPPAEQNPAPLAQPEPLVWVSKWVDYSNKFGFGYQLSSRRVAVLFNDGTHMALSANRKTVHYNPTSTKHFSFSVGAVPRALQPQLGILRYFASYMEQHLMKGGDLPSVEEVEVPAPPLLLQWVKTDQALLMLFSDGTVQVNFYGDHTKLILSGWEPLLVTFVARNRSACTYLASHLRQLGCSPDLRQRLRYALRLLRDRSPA
Sequence of Vascular endothelial growth factor receptor 2 (P35968 whole entry): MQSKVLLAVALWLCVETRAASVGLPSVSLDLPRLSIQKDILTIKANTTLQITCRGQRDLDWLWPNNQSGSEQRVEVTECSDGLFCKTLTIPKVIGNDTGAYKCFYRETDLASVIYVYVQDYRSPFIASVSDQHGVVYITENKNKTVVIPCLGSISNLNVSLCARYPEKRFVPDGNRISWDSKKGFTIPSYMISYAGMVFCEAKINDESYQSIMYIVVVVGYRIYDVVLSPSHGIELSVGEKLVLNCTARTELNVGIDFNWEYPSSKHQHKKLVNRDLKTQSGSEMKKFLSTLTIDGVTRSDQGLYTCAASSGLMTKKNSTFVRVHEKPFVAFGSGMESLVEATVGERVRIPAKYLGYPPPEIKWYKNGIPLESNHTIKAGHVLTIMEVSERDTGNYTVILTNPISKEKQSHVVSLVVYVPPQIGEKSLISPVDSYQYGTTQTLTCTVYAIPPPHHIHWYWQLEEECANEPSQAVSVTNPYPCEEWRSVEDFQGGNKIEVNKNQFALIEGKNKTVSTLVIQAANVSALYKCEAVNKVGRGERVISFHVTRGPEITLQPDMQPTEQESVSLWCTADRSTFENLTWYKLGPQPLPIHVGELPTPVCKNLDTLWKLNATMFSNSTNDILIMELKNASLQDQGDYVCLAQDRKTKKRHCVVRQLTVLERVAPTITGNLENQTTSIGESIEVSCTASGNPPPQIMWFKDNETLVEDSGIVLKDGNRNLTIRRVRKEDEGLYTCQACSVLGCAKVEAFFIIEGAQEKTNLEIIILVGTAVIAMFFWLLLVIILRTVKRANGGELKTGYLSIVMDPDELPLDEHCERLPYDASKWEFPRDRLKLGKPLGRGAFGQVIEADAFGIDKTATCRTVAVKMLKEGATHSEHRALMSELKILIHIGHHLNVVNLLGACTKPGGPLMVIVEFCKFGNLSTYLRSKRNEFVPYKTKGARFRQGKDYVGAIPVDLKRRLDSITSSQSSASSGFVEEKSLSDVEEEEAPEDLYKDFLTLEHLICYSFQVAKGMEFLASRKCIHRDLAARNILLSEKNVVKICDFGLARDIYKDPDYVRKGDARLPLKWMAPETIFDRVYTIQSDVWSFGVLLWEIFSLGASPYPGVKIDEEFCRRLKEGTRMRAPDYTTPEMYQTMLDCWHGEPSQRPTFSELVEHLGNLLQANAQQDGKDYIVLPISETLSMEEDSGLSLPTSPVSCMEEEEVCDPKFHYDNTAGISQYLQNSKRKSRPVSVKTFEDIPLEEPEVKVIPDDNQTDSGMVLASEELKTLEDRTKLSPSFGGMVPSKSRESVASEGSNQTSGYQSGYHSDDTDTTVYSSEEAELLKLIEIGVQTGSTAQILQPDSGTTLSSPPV
Sequence of High affinity nerve growth factor receptor (P04629 whole entry): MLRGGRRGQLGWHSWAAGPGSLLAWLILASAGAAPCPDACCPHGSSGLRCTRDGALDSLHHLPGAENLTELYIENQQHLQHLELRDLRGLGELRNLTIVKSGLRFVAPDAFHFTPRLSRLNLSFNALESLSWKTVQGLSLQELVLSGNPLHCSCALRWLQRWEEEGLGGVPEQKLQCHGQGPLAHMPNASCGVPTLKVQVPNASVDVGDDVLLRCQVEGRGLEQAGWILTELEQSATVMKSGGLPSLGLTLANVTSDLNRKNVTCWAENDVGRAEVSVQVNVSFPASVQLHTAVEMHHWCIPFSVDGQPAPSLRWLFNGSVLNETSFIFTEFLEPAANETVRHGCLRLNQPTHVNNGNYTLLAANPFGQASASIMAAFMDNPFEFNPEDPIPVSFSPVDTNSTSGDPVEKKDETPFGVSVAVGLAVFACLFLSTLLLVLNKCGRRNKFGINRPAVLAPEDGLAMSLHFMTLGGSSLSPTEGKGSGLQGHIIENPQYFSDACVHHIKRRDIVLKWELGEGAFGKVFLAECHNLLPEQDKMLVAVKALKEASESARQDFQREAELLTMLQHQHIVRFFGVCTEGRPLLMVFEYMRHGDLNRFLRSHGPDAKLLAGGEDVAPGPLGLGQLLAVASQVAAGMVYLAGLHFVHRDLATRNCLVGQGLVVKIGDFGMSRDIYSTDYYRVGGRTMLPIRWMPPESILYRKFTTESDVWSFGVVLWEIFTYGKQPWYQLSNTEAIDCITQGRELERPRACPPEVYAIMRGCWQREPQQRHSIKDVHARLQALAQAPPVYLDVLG
Sequence of Ephrin type-A receptor 2 (P29317 whole entry): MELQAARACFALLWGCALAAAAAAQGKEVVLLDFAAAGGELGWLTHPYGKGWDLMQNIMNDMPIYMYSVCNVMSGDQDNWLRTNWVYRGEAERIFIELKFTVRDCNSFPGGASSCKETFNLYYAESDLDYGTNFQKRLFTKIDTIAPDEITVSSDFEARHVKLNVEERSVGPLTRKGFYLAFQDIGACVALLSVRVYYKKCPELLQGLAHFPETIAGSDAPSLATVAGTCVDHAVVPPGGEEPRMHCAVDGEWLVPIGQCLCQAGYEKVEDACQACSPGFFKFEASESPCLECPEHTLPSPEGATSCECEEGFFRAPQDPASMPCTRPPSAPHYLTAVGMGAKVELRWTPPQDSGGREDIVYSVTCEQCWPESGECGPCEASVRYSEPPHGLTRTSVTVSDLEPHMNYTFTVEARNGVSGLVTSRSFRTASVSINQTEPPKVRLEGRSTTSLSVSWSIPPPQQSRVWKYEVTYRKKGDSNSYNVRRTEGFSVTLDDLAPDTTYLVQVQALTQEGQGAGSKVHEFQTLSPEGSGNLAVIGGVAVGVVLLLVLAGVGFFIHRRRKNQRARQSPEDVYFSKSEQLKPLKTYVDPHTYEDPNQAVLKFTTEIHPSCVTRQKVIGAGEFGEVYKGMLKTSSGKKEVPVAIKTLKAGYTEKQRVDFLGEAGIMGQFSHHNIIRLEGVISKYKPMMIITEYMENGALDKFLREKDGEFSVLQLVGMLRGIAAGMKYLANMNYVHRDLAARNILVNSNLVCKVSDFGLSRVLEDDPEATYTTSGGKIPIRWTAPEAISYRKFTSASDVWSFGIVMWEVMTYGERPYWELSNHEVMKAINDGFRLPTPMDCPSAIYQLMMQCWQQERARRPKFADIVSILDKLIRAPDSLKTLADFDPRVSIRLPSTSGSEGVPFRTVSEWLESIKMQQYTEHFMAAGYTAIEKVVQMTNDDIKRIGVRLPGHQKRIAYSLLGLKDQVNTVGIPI
Sequence of Small ubiquitin-related modifier 1 (P63165 whole entry): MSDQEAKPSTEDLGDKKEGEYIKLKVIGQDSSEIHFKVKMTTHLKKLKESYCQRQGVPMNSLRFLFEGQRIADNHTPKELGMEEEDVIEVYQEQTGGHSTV

By AC50 is commonly meant the concentration giving half of the maximal activity seen. By EC50 is commonly meant the concentration needed to bring the measured effect to its halfway point. For `CCC(C)NC(=O)c1c(N)n(CCCOC)c2nc3ccccc3nc12` (stereo unspecified), the AC50 in assay [1] was 4.25 µM (active). Also, the IC50 in assay [2] was 2.06 µM (active). Further, in assay [3], the EC50 is 34.1 µM (active).
As usually defined, the Ki is the equilibrium dissociation constant of an inhibitor or competing ligand from its target. On to `CC(=NNC(=N)N)c1cc(NC(=O)NCCCCCCNC(=O)Nc2cc(C(C)=NNC(=N)N)cc(C(C)=NNC(=N)N)c2)cc(C(C)=NNC(=N)N)c1`, for which the Ki in assay [4] was 158 nM (active); in [5], 316 nM (active); in assay [6] it was > 2.51 µM (inactive); in [7], > 5.01 µM (inactive); on Aurora kinase A it was 5.01 µM (active); in assay [8], > 7.94 µM (inactive). Moreover, the Ki in [9] is 1 µM (active); in assay [10], 2 µM (active); at Ephrin type-A receptor 2, > 3.16 µM (inactive); in [11] it was 6.31 µM (active); in assay [12], > 3.16 µM (inactive); in [13], > 2 µM (inactive).
As for `Cc1cc(N)c2cc(NC(=O)/C=C/c3ccccc3Cl)ccc2n1`, the IC50 is 3.5 µM (active) in assay [14], > 75 µM (active) in assay [15], 18.2 µM (active) at Bcl-2-related protein A1 and > 66.6 µM (inactive) in assay [18]. Besides, the EC50 in the assay with BJ [16] is 2.79 µM (inconclusive); in the assay with BJ [17] it was 4.79 µM (inconclusive).
